Results: patent publication US20230135152A1 (ACURASTEM INCORPORATED, priority 2020, published 2023)

Key:
[1] = molecular target: T1, PIKFYVE (Homo sapiens, UniProt Q9Y2I7); assay: PIKFYVE assay (luciferase ADP-Glo kinase assay, Promega); assay type: biochemical
Summary of the method: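 ADP generated in the kinase reaction was detected by ADP-Glo luminescence (luciferase).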

[2] = molecular target: T1, PIKFYVE; assay: Cell-based Pikfyve inhibition activity assay (EEA1 staining, mean vesicle size in BJ fibroblast cells); details: Table 4, 4 hours treatment, 3 μM Apilimod = 100% inhibition
Protocol: BJ fibroblast cells were obtained from American Type Cell Culture (ATCC, CRL-2522). The cells were maintained in DMEM (Genesee Scientific, 25-500) supplemented with 10% fetal bovine serum (Genesee Scientific, 25-514) and 1% penicillin-streptomycin (Genesee Scientific, 25-512) at 37° C. in the atmosphere 5% CO2. BJ fibroblasts were plated into black flat clear bottom 96-well plates (Grenier, 655090) at a density of 3×10^3 per well and were allowed to attach in culture for 8-10 hours before drug treatment. Drugs were tested at eleven doses separated by 3 fold from 0.03 nM to 3000 nM in triplicates for 4 hours at 37° C. After 4 hours, treatment media was aspirated and replaced with 4% Paraformaldehyde (Electron Microscopy Science, 15714-S) and cells were fixed at room temperature for 5 minutes. 4% PFA in wells were then discarded and replaced with a blocking buffer consisting of 1×PBS with 0.1% Tween (Sigma-Aldrich, P1754-500), 5% Donkey Serum (Jackson ImmunoResearch, 017-000-121), and 1% BSA (Caisson Labs, B005-50GM) and incubated at room temperature for 30 minutes. Blocking buffer was then discarded and replaced with a primary EEA1 antibody (Fisher Scientific, BD610457) in a 1:1000 dilution and incubated at 4° C. overnight. Following overnight incubation, plates were washed with 1×PBS three times and incubated with secondary antibody Donkey anti-Mouse IgG, Alexa Fluor 555 (Invitrogen, A31570) (1:1000 dilution) for 1 hour at room temperature in the dark. Subsequently cell plates were washed with 1×PBS three times and can be stored at 4° C. if not being proceeding with imaging procedure.
Images were acquired with 20× objective (ImageXpress MicroConfocal, Molecular Devices) creating z-series of 5 planes (5 steps, […]), 16 tiles per well. Images were then analyzed using a custom CellProfiler protocol to obtain mean vesicle size. The mean vesicle size from 16 images was used as the output for each well. The mean vesicle size from 0.5% DMSO treated condition was considered as having no Pikfyve inhibition activity and the 3 μM Apilimod treated condition was considered as having 100% inhibition activity. The mean vesicle size was converted to % inhibition activity and the data was fitted to a dose-response curve using log(inhibitor) vs normalized response-variable slope using GraphPad Prism.

T1 sequence (Q9Y2I7 whole entry): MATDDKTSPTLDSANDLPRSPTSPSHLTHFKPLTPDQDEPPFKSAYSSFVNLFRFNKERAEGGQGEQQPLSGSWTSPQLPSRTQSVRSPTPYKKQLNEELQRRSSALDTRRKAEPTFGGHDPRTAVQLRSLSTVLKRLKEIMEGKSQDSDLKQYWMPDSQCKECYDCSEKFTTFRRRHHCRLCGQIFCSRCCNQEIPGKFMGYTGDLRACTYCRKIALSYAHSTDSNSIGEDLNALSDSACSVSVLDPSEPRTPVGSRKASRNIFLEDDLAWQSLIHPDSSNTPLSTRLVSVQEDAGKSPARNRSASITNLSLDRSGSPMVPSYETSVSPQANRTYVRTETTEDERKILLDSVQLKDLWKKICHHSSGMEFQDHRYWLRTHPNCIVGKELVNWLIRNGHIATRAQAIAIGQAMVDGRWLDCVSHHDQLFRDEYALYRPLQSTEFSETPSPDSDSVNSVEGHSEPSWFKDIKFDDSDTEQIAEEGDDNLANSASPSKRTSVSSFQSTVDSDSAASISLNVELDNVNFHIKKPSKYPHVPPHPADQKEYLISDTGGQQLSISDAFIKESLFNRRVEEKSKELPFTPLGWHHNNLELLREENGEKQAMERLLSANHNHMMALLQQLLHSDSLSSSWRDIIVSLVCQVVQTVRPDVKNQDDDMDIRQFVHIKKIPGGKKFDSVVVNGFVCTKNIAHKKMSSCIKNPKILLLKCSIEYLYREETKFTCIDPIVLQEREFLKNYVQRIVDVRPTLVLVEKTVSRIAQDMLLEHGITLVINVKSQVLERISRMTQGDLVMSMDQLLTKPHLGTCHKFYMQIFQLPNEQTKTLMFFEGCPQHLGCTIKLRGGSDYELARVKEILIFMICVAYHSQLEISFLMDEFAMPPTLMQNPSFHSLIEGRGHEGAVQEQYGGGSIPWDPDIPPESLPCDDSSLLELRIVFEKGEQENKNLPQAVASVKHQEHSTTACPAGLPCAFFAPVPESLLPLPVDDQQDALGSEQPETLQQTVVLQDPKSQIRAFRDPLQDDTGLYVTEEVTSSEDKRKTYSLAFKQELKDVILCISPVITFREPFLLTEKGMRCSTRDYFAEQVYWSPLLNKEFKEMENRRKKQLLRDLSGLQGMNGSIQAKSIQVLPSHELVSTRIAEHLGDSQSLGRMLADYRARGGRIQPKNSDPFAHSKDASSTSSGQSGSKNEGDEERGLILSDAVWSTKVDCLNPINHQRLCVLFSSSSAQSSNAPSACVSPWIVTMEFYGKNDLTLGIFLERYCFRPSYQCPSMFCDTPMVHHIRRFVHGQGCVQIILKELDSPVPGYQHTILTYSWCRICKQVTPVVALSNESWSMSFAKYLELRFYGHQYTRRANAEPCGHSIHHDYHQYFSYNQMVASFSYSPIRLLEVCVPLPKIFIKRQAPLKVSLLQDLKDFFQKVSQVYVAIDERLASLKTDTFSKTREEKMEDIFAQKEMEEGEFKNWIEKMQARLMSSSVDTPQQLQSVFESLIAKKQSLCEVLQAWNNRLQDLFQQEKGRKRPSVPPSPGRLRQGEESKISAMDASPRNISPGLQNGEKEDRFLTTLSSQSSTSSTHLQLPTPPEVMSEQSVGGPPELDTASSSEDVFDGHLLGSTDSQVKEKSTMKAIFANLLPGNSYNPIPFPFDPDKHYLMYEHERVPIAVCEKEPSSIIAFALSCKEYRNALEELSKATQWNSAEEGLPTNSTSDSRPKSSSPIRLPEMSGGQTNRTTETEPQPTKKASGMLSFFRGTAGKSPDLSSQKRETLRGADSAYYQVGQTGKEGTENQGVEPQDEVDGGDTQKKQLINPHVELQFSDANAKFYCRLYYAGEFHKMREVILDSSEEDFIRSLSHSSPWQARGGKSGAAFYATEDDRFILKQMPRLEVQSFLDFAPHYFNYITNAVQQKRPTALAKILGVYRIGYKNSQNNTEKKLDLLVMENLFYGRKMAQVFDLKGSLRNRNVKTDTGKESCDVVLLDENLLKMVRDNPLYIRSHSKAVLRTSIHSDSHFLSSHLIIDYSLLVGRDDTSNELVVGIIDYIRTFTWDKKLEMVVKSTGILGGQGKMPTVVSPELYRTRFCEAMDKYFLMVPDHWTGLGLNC

IC50 ([1]; Table 3)	EC50 [2]	IC50 ([1]; Table 2)	Compound
< 3 nM	0.02 to 0.1 µM	–	Cc1cccc(-c2ccn(-c3cc(N4CCOCC4)nc(OCCc4cnn(CCO)c4)n3)n2)c1 [Compound 180, 2-(4-(2-((4-morpholino-6-(3-(m-tolyl)-1H-pyrazol-1-yl)pyrimidin-2-yl)oxy)ethyl)-1H-pyrazol-1-yl)ethan-1-ol]
< 3 nM	0.02 to 0.1 µM	–	Cc1cccc(-c2ccn(-c3cc(N4CCOCC4)nc(NC(=O)CCc4cnn(C)c4)n3)n2)c1 [Compound 187]
3 to 10 nM	0.1 to 0.5 µM	–	Cc1cccc(-c2ccn(-c3cc(N4CCOCC4)nc(-n4cnc(CCO)c4)n3)n2)c1 [Compound 339, 2-(1-(4-morpholino-6-(3-(m-tolyl)-1H-pyrazol-1-yl)pyrimidin-2-yl)-1H-imidazol-4-yl)ethan-1-ol]
10 to 100 nM	0.5 to 5 µM	–	CO[C@H](CO)c1nc(N2CCOCC2)cc(-n2ccc(-c3cccc4[nH]ccc34)n2)n1 [Compound 268, (S)-2-(4-(3-(1H-indol-4-yl)-1H-pyrazol-1-yl)-6-morpholinopyrimidin-2-yl)-2-methoxyethan-1-ol]
–	0.02 to 0.1 µM	< 5 nM	Cc1cccc(-c2ccn(-c3cc(N4CCOCC4)nc(CCc4ncccn4)n3)n2)c1 [Compound 43]
10 to 100 nM	0.5 to 5 µM	–	Cc1cccc(-c2ccn(-c3cc(N4CCOCC4)c4[nH]cc(C)c4n3)n2)c1 [Compound 335, 4-(3-methyl-5-(3-(m-tolyl)-1H-pyrazol-1-yl)-1H-pyrrolo[3,2-b]pyridin-7-yl)morpholine]
3 to 10 nM	0.5 to 5 µM	–	CO[C@@H](CO)c1nc(N2CCOCC2)cc(-n2ccc(-c3cn(C)c4ccccc34)n2)n1 (single isomer, unassigned) [Compound 321]
–	0.5 to 5 µM	5 to 100 nM	Cc1cccc(-c2ccn(-c3cc(N4CCOCC4)nc(C(F)(F)F)n3)n2)c1 [Compound 82]
–	0.02 to 0.1 µM	< 5 nM	Cc1cccc(-c2cc(CN(C)C)n(-c3cc(N4CCOCC4)nc(OCCc4cnn(C)c4)n3)n2)c1 [Compound 86, N,N-dimethyl-1-(1-(2-(2-(1-methyl-1H-pyrazol-4-yl)ethoxy)-6-morpholinopyrimidin-4-yl)-3-(m-tolyl)-1H-pyrazol-5-yl)methanamine]
3 to 10 nM	0.1 to 0.5 µM	–	CCc1cccc(-c2ccn(-c3cc(N4CCOCC4)nc([C@@H](CO)OC)n3)n2)c1 [Compound 272, (S)-2-(4-(3-(3-ethylphenyl)-1H-pyrazol-1-yl)-6-morpholinopyrimidin-2-yl)-2-methoxyethan-1-ol]
10 to 100 nM	0.5 to 5 µM	–	Cn1cc(CCOc2nc(N3CCOCC3)cc(-n3ccc(C4CC4)n3)n2)cn1 [Compound 123, 4-(6-(3-cyclopropyl-1H-pyrazol-1-yl)-2-(2-(1-methyl-1H-pyrazol-4-yl)ethoxy)pyrimidin-4-yl)morpholine]
10 to 100 nM	0.1 to 0.5 µM	–	Cn1cc(CCOc2nc(N3CCOCC3)cc(-n3ccc(-c4c[nH]c5ccccc45)n3)n2)cn1 [Compound 203, 4-(6-(3-(1H-indol-3-yl)-1H-pyrazol-1-yl)-2-(2-(1-methyl-1H-pyrazol-4-yl)ethoxy)pyrimidin-4-yl)morpholine]
–	0.1 to 0.5 µM	< 5 nM	Cc1cccc(-c2ccn(-c3cc(N4CCOCC4)nc(C)n3)n2)c1 [Compound 81, 4-(2-methyl-6-(3-(m-tolyl)-1H-pyrazol-1-yl)pyrimidin-4-yl)morpholine]
3 to 10 nM	0.1 to 0.5 µM	–	CO[C@@H](CO)c1nc(N2CCOCC2)cc(-n2ccc(-c3csc4ccccc34)n2)n1 (single isomer, unassigned) [Compound 259]
< 3 nM	< 0.02 µM	–	Cc1cccc(-c2cc(CO)n(-c3cc(N4CCOCC4)nc(OCCc4cnn(C)c4)n3)n2)c1 [Compound 234, (1-(2-(2-(1-methyl-1H-pyrazol-4-yl)ethoxy)-6-morpholinopyrimidin-4-yl)-3-(m-tolyl)-1H-pyrazol-5-yl)methanol]
3 to 10 nM	0.5 to 5 µM	–	Cc1cccc(-c2cc(CN(C)C)n(-c3cc(N4CCOCC4)c4[nH]ccc4n3)n2)c1 [Compound 242, N,N-dimethyl-1-(1-(7-morpholino-1H-pyrrolo[3,2-b]pyridin-5-yl)-3-(m-tolyl)-1H-pyrazol-5-yl)]
3 to 10 nM	0.5 to 5 µM	–	CO[C@@H](CO)c1nc(N2CCOCC2)cc(-n2nc(-c3csc4ccccc34)cc2C)n1 [Compound 279, (R)-2-(4-(3-(benzo[b]thiophen-3-yl)-5-methyl-1H-pyrazol-1-yl)-6-morpholinopyrimidin-2-yl)-2-methoxyethan-1-ol]

More lines, now with the values behind:

Compound	IC50 ([1]; Table 3)	EC50 [2]	IC50 ([1]; Table 2)
COC(C)(CO)c1nc(N2CCOCC2)cc(-n2ccc(-c3cccc(C)c3)n2)n1 (stereo not drawn) [Compound 227, 2-methoxy-2-(4-morpholino-6-(3-(m-tolyl)-1H-pyrazol-1-yl)pyrimidin-2-yl)propan-1-ol]	< 3 nM	0.1 to 0.5 µM	–
Cn1cc(C(O)c2nc(N3CCOCC3)cc(-n3ccc(-c4ccccc4)n3)n2)cn1 (stereo not drawn) [Compound 184, (1-methyl-1H-pyrazol-4-yl)(4-morpholino-6-(3-phenyl-1H-pyrazol-1-yl)pyrimidin-2-yl)methanol]	10 to 100 nM	0.1 to 0.5 µM	–
Cc1cccc(-c2ccn(-c3cc(N4CCOCC4)nc(O)n3)n2)c1 [Compound 106, 4-morpholino-6-(3-(m-tolyl)-1H-pyrazol-1-yl)pyrimidin-2-ol]	10 to 100 nM	0.5 to 5 µM	–
COCc1cccc(-c2ccn(-c3cc(N4CCOCC4)nc([C@@H](CO)OC)n3)n2)c1 [Compound 276, (S)-2-methoxy-2-(4-(3-(3-(methoxymethyl)phenyl)-1H-pyrazol-1-yl)-6-morpholinopyrimidin-2-yl)ethan-1-ol]	3 to 10 nM	0.1 to 0.5 µM	–
COCc1cc(-c2ccccc2)n(-c2cc(N3CCOCC3)nc(OCCc3cnn(C)c3)n2)n1 [Compound 77, 4-(6-(3-(methoxymethyl)-5-phenyl-1H-pyrazol-1-yl)-2-(2-(1-methyl-1H-pyrazol-4-yl)ethoxy)pyrimidin-4-yl)morpholine]	–	0.5 to 5 µM	5 to 100 nM
Cc1cccc(-c2ccn(-c3cc(N4CCOCC4)nc([C@H]4C[C@H](O)CO4)n3)n2)c1 [Compound 332, (3S,5R)-5-(4-morpholino-6-(3-(m-tolyl)-1H-pyrazol-1-yl)pyrimidin-2-yl)tetrahydrofuran-3-ol]	3 to 10 nM	0.5 to 5 µM	–
Cc1cccc(-c2ccn(-c3cc(N4CCOCC4)nc(OCC4COC4)n3)n2)c1 [Compound 122, 4-(2-(oxetan-3-ylmethoxy)-6-(3-(m-tolyl)-1H-pyrazol-1-yl)pyrimidin-4-yl)morpholine]	3 to 10 nM	0.1 to 0.5 µM	–
CN(C)Cc1cc(-c2ccccc2)nn1-c1cc(N2CCOCC2)nc(OCCc2cnn(C)c2)n1 [Compound 75, N,N-dimethyl-1-(1-(2-(2-(1-methyl-1H-pyrazol-4-yl)ethoxy)-6-morpholinopyrimidin-4-yl)-3-phenyl-1H-pyrazol-5-yl)methanamine]	–	0.1 to 0.5 µM	5 to 100 nM
CO[C@H](CO)c1nc(N2CCOCC2)cc(-n2nc(-c3ccccc3)cc2C)n1 (single isomer, unassigned) [Compound 205]	10 to 100 nM	0.5 to 5 µM	–
CC#CCOc1nc(N2CCOCC2)cc(-n2ccc(-c3cccc(C)c3)n2)n1 [Compound 103, 4-(2-(but-2-yn-1-yloxy)-6-(3-(m-tolyl)-1H-pyrazol-1-yl)pyrimidin-4-yl)morpholine]	3 to 10 nM	0.1 to 0.5 µM	–
CN(C)Cc1cccc(-c2ccn(-c3cc(N4CCOCC4)nc(OCCc4cnn(C)c4)n3)n2)c1 [Compound 193, N,N-dimethyl-1-(3-(1-(2-(2-(1-methyl-1H-pyrazol-4-yl)ethoxy)-6-morpholinopyrimidin-4-yl)-1H-pyrazol-3-yl)phenyl)methanamine]	< 3 nM	0.1 to 0.5 µM	–
Cc1cccc(-c2ccn(-c3cc(N4CCOCC4)nc(OCc4ccn(CCN(C)C)n4)n3)n2)c1 [Compound 238, N,N-dimethyl-2-(3-(((4-morpholino-6-(3-(m-tolyl)-1H-pyrazol-1-yl)pyrimidin-2-yl)oxy)methyl)-1H-pyrazol-1-yl)ethan-1-amine]	< 3 nM	0.1 to 0.5 µM	–
N#CCC(O)c1nc(N2CCOCC2)cc(-n2ccc(-c3ccccc3)n2)n1 (stereo not drawn) [Compound 181, 3-hydroxy-3-(4-morpholino-6-(3-phenyl-1H-pyrazol-1-yl)pyrimidin-2-yl)propanenitrile]	10 to 100 nM	0.5 to 5 µM	–
